Experimental data from publication PMC6309732 (ChemMedChem, 2016).

Legend:
[1] = target: T1, HIV-1 RT-associated RNase H (Human immunodeficiency virus type 1 group M subtype B, UniProt P04585); test: HIV-1 DNA polymerase-independent RNase H activity determination; assay type: biochemical
[2] = target: HIV-1 RT-associated RNA dependent DNA polymerase (Human immunodeficiency virus type 1 group M subtype B, UniProt P04585); test: biochemical
[3] = target: T1, HIV-1 RT-associated RNase H; test: RNase H assay with modified order of addition; assay type: biochemical; settings: for Fold increase of IC50 versus the regular assay: inhibitor added after duplex substrate vs regular assay
HIV-1 RT heterodimer = HIV-1 RT heterodimer (Human immunodeficiency virus type 1 group M subtype B, UniProt P04585); test: Differential Scanning Fluorimetry; assay type: binding; settings: 10 μM inhibitor, 300 nM HIV-1 RT; data not shown
[4] = Cytotoxicity in mock-infected MT-4 cells; assay type: cell-based; settings: human
HIV-1 (IIIB strain) = test: Antiviral assay, HIV-1; assay type: cell-based; settings: acutely infected MT-4 cells; at concentrations less than cytotoxic
HIV-2 (ROD strain) = test: Antiviral assay, HIV-2; assay type: cell-based; settings: acutely infected MT-4 cells; at concentrations less than cytotoxic

Row | Compound | IC50 [1] [µM] | IC50 [2] [µM] | further results
1 | COc1ccc(C(=O)Nc2sc3c(c2C(=O)Nc2ccccn2)CCCCC3)c(OC)n1 [Compound 30, 2,6-Dimethoxy-N-(3-(pyridin-2-ylcarbamoyl)-5,6,7,8-tetrahydro-4H-cyclohepta[b]thiophen-2-yl)nicotinamide] | 21.5 ± 1 | – | –
2 | O=C(Nc1sc2c(c1C(=O)Nc1ccccn1)CCCCC2)c1cccs1 [Compound 34, N-(Pyridin-2-yl)-2-(thiophene-2-carboxamido)-5,6,7,8-tetrahydro-4H-cyclohepta[b]thiophene-3-carboxamide] | 10.4 ± 1.96 | > 50 | –
3 | O=C(Nc1sc2c(c1C(=O)Nc1ccccn1)CCCCC2)c1ccc(O)c(O)c1 [Compound 33, 2-(3,4-Dihydroxybenzamido)-N-(pyridin-2-yl)-5,6,7,8-tetrahydro-4H-cyclohepta[b]thiophene-3-carboxamide] | – | 20.9 ± 1.7 | IC50 [3]: 5.3 ± 0.2 µM; Fold increase of IC50 versus the regular assay [3]: 5 fold; Effect on Tm of the RT heterodimer (HIV-1 RT heterodimer): no decreased Tm; CC50 at 5 days [4]: 30.7 µM; Inhibition of HIV-1 (IIIB) replication (HIV-1 (IIIB strain)): unable to affect viral replication; Inhibition of HIV-2 (ROD) replication (HIV-2 (ROD strain)): unable to affect viral replication
4 | O=C(Nc1sc2c(c1C(=O)Nc1ccccn1)CCCCC2)c1ccccc1Br [Compound 23, 2-(2-Bromobenzamido)-N-(pyridin-2-yl)-5,6,7,8-tetrahydro-4H-cyclohepta[b]thiophene-3-carboxamide] | 4.57 ± 0.01 | > 50 | –
5 | Cc1ccccc1C(=O)Nc1sc2c(c1C(=O)Nc1ccccn1)CCCCC2 [Compound 29, 2-(2-Methylbenzamido)-N-(pyridin-2-yl)-5,6,7,8-tetrahydro-4H-cyclohepta[b]thiophene-3-carboxamide] | 18.3 ± 1.8 | – | –
6 | Nc1ccc(C(=O)Nc2sc3c(c2C(=O)Nc2ccccn2)CCCCC3)cc1 [Compound 27, 2-(4-Aminobenzamido)-N-(pyridin-2-yl)-5,6,7,8-tetrahydro-4H-cyclohepta[b]thiophene-3-carboxamide] | 21.4 ± 4.4 | – | –
7 | Nc1ccccc1C(=O)Nc1sc2c(c1C(=O)Nc1ccccn1)CCCCC2 [Compound 26, 2-(2-Aminobenzamido)-N-(pyridin-2-yl)-5,6,7,8-tetrahydro-4H-cyclohepta[b]thiophene-3-carboxamide] | 14.9 ± 4.1 | – | –
8 | CC(=O)Nc1sc2c(c1C(=O)Nc1ccccn1)CCCCC2 [Compound 35, 2-Acetamido-N-(pyridin-2-yl)-5,6,7,8-tetrahydro-4H-cyclohepta[b]thiophene-3-carboxamide] | > 100 | – | –
9 | O=C(Cc1ccccc1F)Nc1sc2c(c1C(=O)Nc1ccccn1)CCCCC2 [Compound 36, 2-(2-(2-Fluorophenyl)acetamido)-N-(pyridin-2-yl)-5,6,7,8-tetrahydro-4H-cyclohepta[b]thiophene-3-carboxamide] | – | > 50 | –
10 | O=C(Nc1sc2c(c1C(=O)Nc1ccccc1F)CCCCC2)c1ccccn1 [Compound 37, N-(3-((2-Fluorophenyl)carbamoyl)-5,6,7,8-tetrahydro-4H-cyclohepta[b]thiophen-2-yl)picolinamide] | 13.7 ± 1.6 | – | –
11 | O=C(Nc1sc2c(c1C(=O)Nc1ccccn1)CCCCC2)c1ccccc1[N+](=O)[O-] [Compound 24, 2-(2-Nitrobenzamido)-N-(pyridin-2-yl)-5,6,7,8-tetrahydro-4H-cyclohepta[b]thiophene-3-carboxamide] | 53.5 ± 1.7 | – | –
12 | COc1ccc(C(=O)Nc2sc3c(c2C(=O)Nc2ccccn2)CCCCC3)cc1OC [Compound 31, 2-(3,4-Dimethoxybenzamido)-N-(pyridin-2-yl)-5,6,7,8-tetrahydro-4H-cyclohepta[b]thiophene-3-carboxamide] | 4.01 ± 1 | > 50 | Fold decrease in RNase H potency relative to compound 33 ([1]; O-methylated hydroxyl groups vs catechol 33): 5 fold; IC50 [3]: 20 ± 7 µM; Fold increase of IC50 versus the regular assay [3]: 5 fold; Effect on Tm of the RT heterodimer (HIV-1 RT heterodimer): no decreased Tm; CC50 at 5 days [4]: 6.24 µM; Inhibition of HIV-1 (IIIB) replication (HIV-1 (IIIB strain)): unable to affect viral replication; Inhibition of HIV-2 (ROD) replication (HIV-2 (ROD strain)): unable to affect viral replication
13 | COc1ccc(C(=O)Nc2sc3c(c2C(=O)Nc2ccccn2)CCCCC3)c(O)n1 [Compound 32, 2-Hydroxy-6-methoxy-N-(3-(pyridin-2-ylcarbamoyl)-5,6,7,8-tetrahydro-4H-cyclohepta[b]thiophen-2-yl)nicotinamide] | 15.1 ± 1.3 | – | –
